Tests used:
Format in all cases: in vivo
Stellaria media [1] = assay: Post-emergence herbicidal efficacy, STEME; settings: application rate 320 g/ha, rated visually after about 3 weeks
From the text: (§1) ABUTH: Abutilon theophrasti ALOMY: Alopecurus myosuroides AMARE: Amaranthus retroflexus AVEFA: Avena fatua CYPES: Cyperus esculentus ECHCG: Echinochloa crus-galli LOLMU: Lolium multiflorum MATIN: Matricaria inodora PHBPU: Ipomoea purpurea POLCO: Polygonum convolvulus SETVI: Setaria viridis STEME: Stellaria media VERPE: Veronica persica VTOTR: Viola tricolor
(§2) C.2 Post-Emergence Herbicidal Action and Crop Plant Compatibility
(§3) Seeds of monocotyledonous and dicotyledonous weeds and crop plants are placed in sandy loam in plastic or organic planting pots, covered with soil and cultivated in a greenhouse under controlled growth conditions. 2 to 3 weeks after sowing, the test plants are treated at the one-leaf stage. The compounds of the invention, formulated in the form of wettable powders (WP) or as emulsion concentrates (EC), are then sprayed onto the green parts of the plants as aqueous suspension or emulsion with addition of 0.5% additive at a water application rate of […] (converted). After the test plants had been kept in the greenhouse under optimum growth conditions for about 3 weeks, the activity of the preparations is rated visually in comparison to untreated controls. For example, 100% activity=the plants have died, 0% activity=like control plants.

Amaranthus retroflexus [2] = assay: Pre-emergence herbicidal efficacy, AMARE; settings: Table B1, application rate 320 g/ha, scored visually after about 3 weeks vs untreated controls
Outline: (§4)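 Visual percent activity relative to untreated plants (0% = like control, 100% = dead), scored about 3 weeks after treatment under greenhouse conditions.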

Abutilon theophrasti [3] = assay: Pre-emergence herbicidal efficacy, ABUTH; settings: Table B1, application rate 320 g/ha, scored visually after about 3 weeks vs untreated controls
Outline: as §4

Polygonum convolvulus = assay: Pre-emergence herbicidal efficacy, POLCO; settings: Table B1, application rate 320 g/ha, scored visually after about 3 weeks vs untreated controls
Outline: as §4

harmful plants [4] = assay: Post-emergence herbicidal action; settings: applied post-emergence
Method: as §2, §3

Matricaria inodora = assay: Pre-emergence herbicidal efficacy, MATIN; settings: Table B1, application rate 320 g/ha, scored visually after about 3 weeks vs untreated controls
Outline: as §4

Viola tricolor [5] = assay: Post-emergence herbicidal efficacy, VIOTR; settings: application rate 320 g/ha, rated visually after about 3 weeks (Table B5)
Outline: (§5)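 Greenhouse plants in sandy loam were sprayed at the one-leaf stage, 2–3 weeks after sowing. After about 3 weeks, activity was rated visually against untreated controls, from 0% (like control) to 100% (plants dead).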

Stellaria media [6] = assay: Pre-emergence herbicidal efficacy, STEME; settings: Table B1, application rate 320 g/ha, scored visually after about 3 weeks vs untreated controls
Outline: as §4

Viola tricolor [7] = assay: Pre-emergence herbicidal efficacy, VIOTR; settings: Table B1, application rate 320 g/ha, scored visually after about 3 weeks vs untreated controls
Outline: as §4

Lolium rigidum [8] = assay: Pre-emergence herbicidal efficacy, LOLRI; settings: Table B1, application rate 320 g/ha, scored visually after about 3 weeks vs untreated controls
Outline: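 Seeds sown in pots and covered with soil. Greenhouse-grown about 3 weeks, then visually scored as % activity vs untreated controls (100% = dead, 0% = like control).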

Setaria viridis [9] = assay: Pre-emergence herbicidal efficacy, SETVI; settings: Table B1, application rate 320 g/ha, scored visually after about 3 weeks vs untreated controls
Outline: as §4

Veronica persica [10] = assay: Pre-emergence herbicidal efficacy, VERPE; settings: Table B1, application rate 320 g/ha, scored visually after about 3 weeks vs untreated controls
Outline: as §4

Echinochloa crus-galli [11] = assay: Post-emergence herbicidal efficacy, ECHCG; settings: application rate 320 g/ha, rated visually after about 3 weeks
From the text: as §1, §2, §3

Amaranthus retroflexus [12] = assay: Post-emergence herbicidal efficacy, AMARE; settings: application rate 320 g/ha
From the text: as §1, §2, §3

Echinochloa crus-galli [13] = assay: Pre-emergence herbicidal efficacy, ECHCG; settings: Table B1, application rate 320 g/ha, scored visually after about 3 weeks vs untreated controls
Outline: as §4

Veronica persica [14] = assay: Post-emergence herbicidal efficacy, VERPE; settings: application rate 320 g/ha
Outline: as §5

Lolium rigidum [15] = assay: Post-emergence herbicidal efficacy, LOLRI; settings: application rate 320 g/ha, rated visually after about 3 weeks
Method: as §2, §3

Setaria viridis [16] = assay: Post-emergence herbicidal efficacy, SETVI; settings: Table B6, one-leaf stage, application rate 320 g/ha, rated visually after about 3 weeks vs untreated controls
From the text: as §1, §2, §3

Abutilon theophrasti [17] = assay: Post-emergence herbicidal efficacy, ABUTH; settings: Table B6, one-leaf stage, application rate 320 g/ha, rated visually after about 3 weeks vs untreated controls
From the text: as §1, §2, §3

harmful plants [18] = assay: Pre-emergence herbicidal action; settings: applied pre-emergence
From the text: C.1 Pre-Emergence Herbicidal Action and Crop Plant Compatibility
Seeds of monocotyledonous and dicotyledonous weed plants and crop plants are placed in plastic or organic planting pots and covered with soil. The compounds of the invention, formulated in the form of wettable powders (WP) or as emulsion concentrates (EC), are then applied onto the surface of the covering soil as aqueous suspension or emulsion with addition of 0.5% additive at a water application rate of […] (converted). After the treatment, the pots are placed in a greenhouse and kept under good growth conditions for the trial plants. After about 3 weeks, the effect of the preparations is scored visually in comparison with untreated controls as percentages. For example, 100% activity=the plants have died, 0% activity=like control plants.

[19] = rated visually after about 3 weeks
[20] = rated visually after about 3 weeks (Table B5)
[21] = Table B6, one-leaf stage, rated visually after about 3 weeks vs untreated controls

Cc1ccc2c(c1)C(Nc1nc3n(n1)CCCCS3)CC2 (stereo not drawn) [Example I-248]
very good herbicidal efficacy: herbicidal efficacy against harmful plants (harmful plants [4])
100%: Herbicidal efficacy against STEME (Stellaria media [1]) | Herbicidal efficacy against AMARE (Amaranthus retroflexus [2]) | Herbicidal efficacy against ABUTH (Abutilon theophrasti [3]) | Herbicidal efficacy against POLCO (Polygonum convolvulus) | Herbicidal efficacy against MATIN (Matricaria inodora) | Herbicidal efficacy against STEME (Stellaria media [6]) | Herbicidal efficacy against VIOTR (Viola tricolor [7]) | Herbicidal efficacy against LOLRI (Lolium rigidum [8]) | Herbicidal efficacy against SETVI (Setaria viridis [9]) | Herbicidal efficacy against VERPE (Veronica persica [10]) | Herbicidal efficacy against ECHCG (Echinochloa crus-galli [11]) | Herbicidal efficacy against ECHCG (Echinochloa crus-galli [13]) | Herbicidal efficacy against LOLRI (Lolium rigidum [15])
90%: Herbicidal efficacy against VIOTR (Viola tricolor [5]) | Herbicidal efficacy against AMARE (Amaranthus retroflexus [12]; [19]) | Herbicidal efficacy against VERPE (Veronica persica [14]; [20])

Cc1ccc2c(c1)[C@H](Nc1nc3n(n1)CCCCS3)CCO2 [Example I-377]
80%: Herbicidal efficacy against ABUTH (Abutilon theophrasti [17]) | Herbicidal efficacy against AMARE (Amaranthus retroflexus [12]; [21])
90%: Herbicidal efficacy against SETVI (Setaria viridis [16]) | Herbicidal efficacy against VERPE (Veronica persica [14]; [21])
100%: Herbicidal efficacy against AMARE (Amaranthus retroflexus [2]) | Herbicidal efficacy against ABUTH (Abutilon theophrasti [3]) | Herbicidal efficacy against POLCO (Polygonum convolvulus) | Herbicidal efficacy against MATIN (Matricaria inodora) | Herbicidal efficacy against STEME (Stellaria media [6]) | Herbicidal efficacy against VIOTR (Viola tricolor [7]) | Herbicidal efficacy against LOLRI (Lolium rigidum [8]) | Herbicidal efficacy against SETVI (Setaria viridis [9]) | Herbicidal efficacy against VERPE (Veronica persica [10]) | Herbicidal efficacy against ECHCG (Echinochloa crus-galli [13])

Cc1ccc2c(c1)[C@H](Nc1nc3n(n1)CCCCS3)CC2 [Example I-353]
90%: Herbicidal efficacy against AMARE (Amaranthus retroflexus [12]; [19]) | Herbicidal efficacy against VERPE (Veronica persica [14]; [20])
very good herbicidal efficacy: herbicidal efficacy against harmful plants (harmful plants [4])
100%: Herbicidal efficacy against STEME (Stellaria media [1]) | Herbicidal efficacy against AMARE (Amaranthus retroflexus [2]) | Herbicidal efficacy against ABUTH (Abutilon theophrasti [3]) | Herbicidal efficacy against POLCO (Polygonum convolvulus) | Herbicidal efficacy against MATIN (Matricaria inodora) | Herbicidal efficacy against STEME (Stellaria media [6]) | Herbicidal efficacy against VIOTR (Viola tricolor [7]) | Herbicidal efficacy against LOLRI (Lolium rigidum [8]) | Herbicidal efficacy against SETVI (Setaria viridis [9]) | Herbicidal efficacy against VERPE (Veronica persica [10]) | Herbicidal efficacy against ECHCG (Echinochloa crus-galli [11]) | Herbicidal efficacy against ECHCG (Echinochloa crus-galli [13]) | Herbicidal efficacy against LOLRI (Lolium rigidum [15])
80%: Herbicidal efficacy against VIOTR (Viola tricolor [5])

Cc1ccc2c(c1)C(Nc1nc3n(n1)CCC(=O)N3C)CCC2 (stereo not drawn) [Example I-231]
very good herbicidal efficacy: herbicidal efficacy against harmful plants (harmful plants [4]) | herbicidal efficacy against harmful plants (harmful plants [18])
90%: Herbicidal efficacy against VIOTR (Viola tricolor [5]) | Herbicidal efficacy against VERPE (Veronica persica [14]; [20])
100%: Herbicidal efficacy against AMARE (Amaranthus retroflexus [2]) | Herbicidal efficacy against ABUTH (Abutilon theophrasti [3]) | Herbicidal efficacy against POLCO (Polygonum convolvulus) | Herbicidal efficacy against MATIN (Matricaria inodora) | Herbicidal efficacy against STEME (Stellaria media [6]) | Herbicidal efficacy against VIOTR (Viola tricolor [7]) | Herbicidal efficacy against LOLRI (Lolium rigidum [8]) | Herbicidal efficacy against SETVI (Setaria viridis [9]) | Herbicidal efficacy against VERPE (Veronica persica [10]) | Herbicidal efficacy against ECHCG (Echinochloa crus-galli [11]) | Herbicidal efficacy against ECHCG (Echinochloa crus-galli [13])
80%: Herbicidal efficacy against STEME (Stellaria media [1]) | Herbicidal efficacy against AMARE (Amaranthus retroflexus [12]; [19]) | Herbicidal efficacy against LOLRI (Lolium rigidum [15])

CC(=O)N1CCn2nc(N[C@@H]3CCCc4ccc(C)cc43)nc2C1 [Example I-180]
100%: Herbicidal efficacy against AMARE (Amaranthus retroflexus [2]) | Herbicidal efficacy against ABUTH (Abutilon theophrasti [3]) | Herbicidal efficacy against POLCO (Polygonum convolvulus) | Herbicidal efficacy against MATIN (Matricaria inodora) | Herbicidal efficacy against STEME (Stellaria media [6]) | Herbicidal efficacy against VIOTR (Viola tricolor [7]) | Herbicidal efficacy against LOLRI (Lolium rigidum [8]) | Herbicidal efficacy against SETVI (Setaria viridis [9]) | Herbicidal efficacy against VERPE (Veronica persica [10]) | Herbicidal efficacy against ECHCG (Echinochloa crus-galli [13])
80%: Herbicidal efficacy against SETVI (Setaria viridis [16]) | Herbicidal efficacy against ABUTH (Abutilon theophrasti [17]) | Herbicidal efficacy against AMARE (Amaranthus retroflexus [12]; [21]) | Herbicidal efficacy against VERPE (Veronica persica [14]; [21])

Cc1ccc2c(c1)C(Nc1nc3n(n1)CCCCS3)CCC2 (stereo not drawn) [Example I-214]
80%: Herbicidal efficacy against ABUTH (Abutilon theophrasti [17]) | Herbicidal efficacy against AMARE (Amaranthus retroflexus [12]; [21])
100%: Herbicidal efficacy against AMARE (Amaranthus retroflexus [2]) | Herbicidal efficacy against ABUTH (Abutilon theophrasti [3]) | Herbicidal efficacy against POLCO (Polygonum convolvulus) | Herbicidal efficacy against MATIN (Matricaria inodora) | Herbicidal efficacy against STEME (Stellaria media [6]) | Herbicidal efficacy against VIOTR (Viola tricolor [7]) | Herbicidal efficacy against SETVI (Setaria viridis [16]) | Herbicidal efficacy against LOLRI (Lolium rigidum [8]) | Herbicidal efficacy against SETVI (Setaria viridis [9]) | Herbicidal efficacy against VERPE (Veronica persica [10]) | Herbicidal efficacy against ECHCG (Echinochloa crus-galli [13]) | Herbicidal efficacy against VERPE (Veronica persica [14]; [21])

Cc1ccc2c(c1)[C@H](Nc1nc3n(n1)CCN(S(=O)(=O)C(C)C)C3)CCC2 [Example I-199]
very good herbicidal efficacy: herbicidal efficacy against harmful plants (harmful plants [18])
100%: Herbicidal efficacy against AMARE (Amaranthus retroflexus [2]) | Herbicidal efficacy against ABUTH (Abutilon theophrasti [3]) | Herbicidal efficacy against POLCO (Polygonum convolvulus) | Herbicidal efficacy against MATIN (Matricaria inodora) | Herbicidal efficacy against STEME (Stellaria media [6]) | Herbicidal efficacy against VIOTR (Viola tricolor [7]) | Herbicidal efficacy against LOLRI (Lolium rigidum [8]) | Herbicidal efficacy against SETVI (Setaria viridis [9]) | Herbicidal efficacy against VERPE (Veronica persica [10]) | Herbicidal efficacy against ECHCG (Echinochloa crus-galli [13])

Reference: patent publication US20200331904A1, “3-AMINO-[1,2,4]-TRIAZOLE DERIVATIVES AND THEIR USE FOR CONTROLLING UNDESIRED PLANT GROWTH” (Bayer CropScience Aktiengesellschaft, priority 2017, published 2020)
